Experimental findings from US12227490B2, “Cereblon binding compounds, compositions thereof, and methods of treatment therewith” (Celgene Corporation, priority 2020, dated 2025) are described below.

For orientation: DC50 means the concentration at which degradation of the target reaches its halfway point. A lower DC50 goes with a more potent degrader.

The assay concerns the target T1, AR (androgen receptor) protein in VCaP cells (Homo sapiens, UniProt P10275).
T1 construct: endogenous in cells; host or cells: VCaP cells
T1 sequence (P10275 1-920): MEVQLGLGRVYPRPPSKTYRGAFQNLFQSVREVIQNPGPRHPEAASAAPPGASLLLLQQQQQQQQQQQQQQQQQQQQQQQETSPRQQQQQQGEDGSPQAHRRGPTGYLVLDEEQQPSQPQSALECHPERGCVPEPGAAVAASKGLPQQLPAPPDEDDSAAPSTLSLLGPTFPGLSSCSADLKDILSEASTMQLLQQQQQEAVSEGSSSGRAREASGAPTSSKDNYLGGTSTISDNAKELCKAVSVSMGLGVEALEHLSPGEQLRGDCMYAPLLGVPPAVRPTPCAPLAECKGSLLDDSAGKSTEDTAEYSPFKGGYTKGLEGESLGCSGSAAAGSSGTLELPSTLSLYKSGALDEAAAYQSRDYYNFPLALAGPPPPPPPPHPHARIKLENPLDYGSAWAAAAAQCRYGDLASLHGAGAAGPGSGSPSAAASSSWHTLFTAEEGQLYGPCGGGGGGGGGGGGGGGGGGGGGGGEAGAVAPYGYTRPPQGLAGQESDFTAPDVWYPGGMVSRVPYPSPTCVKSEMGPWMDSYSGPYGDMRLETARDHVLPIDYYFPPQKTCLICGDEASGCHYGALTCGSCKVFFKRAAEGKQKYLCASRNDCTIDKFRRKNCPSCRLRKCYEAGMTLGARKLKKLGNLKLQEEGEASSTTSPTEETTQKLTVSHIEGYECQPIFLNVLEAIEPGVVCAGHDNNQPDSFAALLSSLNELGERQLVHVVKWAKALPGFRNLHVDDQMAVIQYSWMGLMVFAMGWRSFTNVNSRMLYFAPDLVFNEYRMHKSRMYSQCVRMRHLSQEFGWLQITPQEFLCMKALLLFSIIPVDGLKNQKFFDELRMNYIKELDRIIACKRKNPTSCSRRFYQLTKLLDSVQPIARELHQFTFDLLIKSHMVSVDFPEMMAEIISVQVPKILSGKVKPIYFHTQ
Put plainly: VCAP AR Degradation Assay. In kind it is cell-based. Particulars: 24 h, AR ELISA; for DC50: concentration of compound when AR level = 50% of DMSO control; for remaining activity at up to 5 µM: top concentration 5 μM, read-out: Y (lowest measured AR level normalized to DMSO control, AR degradation efficiency). Here is the method: VCAP AR Degradation Assay. Test compounds were pre-dispensed into a Corning CellBind 96-well clear bottom plate (Cat #3300) using an acoustic dispenser to make a 10-point concentration series at 1:3 dilution for each compound. The final top concentration of each compound was 5 μM. DMSO at a final concentration of 0.1% was used as a control. VCaP cells cultured in DMEM with 8% fetal bovine serum (FBS) were seeded at 50K cells per well in a 200 μL volume into the compound plate and incubated at 37° C. in a CO2 incubator for 24 h. The medium was carefully removed from the cells and the plate was placed on ice. One hundred μL of ice-cold 1× cell lysis buffer from Cell Signaling Technologies (Cat #9803) was added to each well of the cells and the plate was incubated at 4° C. on a shaker for 1 h. Fifteen μL of cell lysate was used for AR ELISA detection using a PathScan Total Sandwich AR ELISA kit (Cell Signaling Technology, Cat #12580). AR levels in compound-treated wells were normalized to that of DMSO control and expressed as percent of control (PoC) (y). A Four Parameter Logistic Model (Sigmoidal Dose-Response Model) was used to determine the compound's DC50, and EC50, using the following equation: y=(A+((B−A)/(1+((C/x)^D)))) • A=YMin (lowest AR level normalized to DMSO control in response to compound treatment, as determined by curve fit) • B=YMax (maximum AR level as determined by curve fit) • C=EC50 • D=Hill Slope • x=compound concentration • EC50=the concentration of compound when y=(YMax−YMin)/2 • DC50=the concentration of the compound when y=50% of DMSO control (50% AR degradation) • y=AR protein level normalized to DMSO control
The lowest measured AR level normalized to DMSO control in response to compound treatment, termed Y value, was used to characterize the compound-mediated AR degradation efficiency.
On the technique in general: ELISA stands for enzyme-linked immunosorbent assay.

Structures can show the parent of a compound that is named as a salt. A value given as a limit tells only on which side of the number the result lay.

With `C[C@@H]1C[C@@H](CCO[C@H]2CC[C@H](N3C(=S)N(c4ccc(C#N)c(C(F)(F)F)c4)C(=O)C3(C)C)CC2)C[C@H](C)N1CC(=O)Nc1cccc2c(C3CCC(=O)NC3=O)nn(C)c12` (stereo partly drawn) [Cmpd 12, 2-((2R,4s,6S)-4-(2-((trans-4-(3-(4-Cyano-3-(trifluoromethyl)phenyl)-5,5-dimethyl-4-oxo-2-thioxoimidazolidin-1-yl)cyclohexyl)oxy)ethyl)-2,6-dimethylpiperidin-1-yl)-N-(3-(2,6-dioxopiperidin-3-yl)-1-methyl-1H-indazol-7-yl)acetamide hydrochloride], the DC50 is 2 to 5 nM and the remaining activity at up to 5 µM lay in the range of 0 to 25%.

As to `C[C@@H]1CN(CCO[C@H]2CC[C@H](N3C(=S)N(c4ccc(C#N)c(Cl)c4)C(=O)C3(C)C)CC2)C[C@H](C)N1CC(=O)Nc1cccc2c(C3CCC(=O)NC3=O)nn(C)c12` (stereo partly drawn) [Cmpd 3, 2-((2R,6S)-4-(2-((trans-4-(3-(3-Chloro-4-cyanophenyl)-5,5-dimethyl-4-oxo-2-thioxoimidazolidin-1-yl)cyclohexyl)oxy)ethyl)-2,6-dimethylpiperazin-1-yl)-N-(3-(2,6-dioxopiperidin-3-yl)-1-methyl-1H-indazol-7-yl)acetamide hydrochloride], the DC50 was < 2 nM and the remaining activity at up to 5 µM was 0 to 25%.

Take `C[C@@H]1C[C@H](OCCO[C@H]2CC[C@H](N3C(=S)N(c4cnc(C#N)c(C(F)(F)F)c4)C(=O)C3(C)C)CC2)C[C@H](C)N1CC(=O)Nc1cccc2c(C3CCC(=O)NC3=O)nn(C)c12` (stereo partly drawn) [Cmpd 28, 2-((2R,4r,6S)-4-(2-(((trans)-4-(3-(6-Cyano-5-(trifluoromethyl)pyridin-3-yl)-5,5-dimethyl-4-oxo-2-thioxoimidazolidin-1-yl)cyclohexyl)oxy)ethoxy)-2,6-dimethylpiperidin-1-yl)-N-(3-(2,6-dioxopiperidin-3-yl)-1-methyl-1H-indazol-7-yl)acetamide]: the DC50 was < 2 nM and the remaining activity at up to 5 µM lay within 0 to 25%.

For `C[C@@H]1C[C@H](OCCC[C@H]2CC[C@H](N3C(=S)N(c4cnc(C#N)c(C(F)(F)F)c4)C(=O)C3(C)C)CC2)C[C@H](C)N1CC(=O)Nc1cccc2c(C3CCC(=O)NC3=O)nn(C)c12` (stereo partly drawn) [Cmpd 24, 2-((2R,4r,6S)-4-(3-((trans)-4-(3-(6-Cyano-5-(trifluoromethyl)pyridin-3-yl)-5,5-dimethyl-4-oxo-2-thioxoimidazolidin-1-yl)cyclohexyl)propoxy)-2,6-dimethylpiperidin-1-yl)-N-(3-(2,6-dioxopiperidin-3-yl)-1-methyl-1H-indazol-7-yl)acetamide], the DC50 is 5 to 20 nM and the remaining activity at up to 5 µM is 0 to 25%.

With `C[C@@H]1C[C@H](OCCO[C@H]2CC[C@H](N3C(=S)N(c4ccc(C#N)c(C(F)(F)F)c4)C(=O)C3(C)C)CC2)C[C@H](C)N1CC(=O)Nc1cccc2c(C3CCC(=O)NC3=O)nn(C)c12` (stereo partly drawn) [Cmpd 27, 2-((2R,4r,6S)-4-(2-(((trans)-4-(3-(4-Cyano-3-(trifluoromethyl)phenyl)-5,5-dimethyl-4-oxo-2-thioxoimidazolidin-1-yl)cyclohexyl)oxy)ethoxy)-2,6-dimethylpiperidin-1-yl)-N-(3-(2,6-dioxopiperidin-3-yl)-1-methyl-1H-indazol-7-yl)acetamide], the DC50 lay within 2 to 5 nM and the remaining activity at up to 5 µM was 25 to 30%.

As for `Cn1nc(C2CCC(=O)NC2=O)c2cccc(NC(=O)CN3CCN(CCC[C@H]4CC[C@H](N5C(=S)N(c6ccc(C#N)c(C(F)(F)F)c6)C(=O)C5(C)C)CC4)C[C@@H]3C(F)(F)F)c21` (stereo partly drawn) [Cmpd 18, 2-((R)-4-(3-((trans)-4-(3-(4-Cyano-3-(trifluoromethyl)phenyl)-5,5-dimethyl-4-oxo-2-thioxoimidazolidin-1-yl)cyclohexyl)propyl)-2-(trifluoromethyl)piperazin-1-yl)-N-(3-(2,6-dioxopiperidin-3-yl)-1-methyl-1H-indazol-7-yl)acetamide], the DC50 lay within 5 to 20 nM and the remaining activity at up to 5 µM was in the range of 25 to 30%.

With `C[C@@H]1CN(CCC[C@H]2CC[C@H](N3C(=S)N(c4ccc(C#N)c(Cl)c4)C(=O)C3(C)C)CC2)C[C@H](C)N1CC(=O)Nc1cccc2c(C3CCC(=O)NC3=O)nn(C)c12` (stereo partly drawn) [Cmpd 11, 2-((2S,6R)-4-(3-(trans-4-(3-(3-Chloro-4-cyanophenyl)-5,5-dimethyl-4-oxo-2-thioxoimidazolidin-1-yl)cyclohexyl)propyl)-2,6-dimethylpiperazin-1-yl)-N-(3-(2,6-dioxopiperidin-3-yl)-1-methyl-1H-indazol-7-yl)acetamide], the DC50 lay in the range of 5 to 20 nM and the remaining activity at up to 5 µM is 30 to 50%.
